From US5438135A, “Water-soluble tetraazaporphins and fluorochrome for labeling” (Hitachi Chemical Company, priority 1991, dated 1995)
Where two headings read alike, the source gives them in different places.

How the values were obtained:
[1] = Measurement of fluorescence quantum yield (relative quantum yield method); type: physicochemical; settings: Methanol
Experimental: For the tetraazaporphins obtained in Examples 1 to 11 and tetraaxzaporphins of this invention obtained in the same manner as in Examples 1 to 11, fluorescence quantum yield was measured according to the method for measuring relative quantum yield described in a reference [J. Photochem. Photobiol, A. Chemistry, vol. 45, p. 117-121 (1988)] using 1,1',3,3,3',3'-hexamethylindotricarbocyanine perchlorate or oxazine-720 as a standard substance in the near infrared region. As is clear from Tables 10 to 12, all of the fluorochromes for labeling of this invention show a sufficient fluorescence quantum yield.

[2] = test system: anti-morphine monoclonal antibody; type: binding
Experimental: For morphine, aminomorphine and the above-mentioned fluorochrome-labeled morphines, relative immuno-affinity for anti-morphine monoclonal antibody was measured using a competitive reaction in which they competed with tritium-labeled morphine.

[3] = test system: DNA having a known base sequence; experiment: Analysis of the base sequence of DNA (Sanger reaction with labeled primers, DNA sequencer equipped with a semiconductor laser); settings: Triton X-100; semiconductor laser 680 nm
Experimental: A DNA having a known base sequence was used as a sample. Sanger reaction was carried out for the 4 kinds of bases using each of the labeled primers synthesized in Examples 19 to 25 or primers having a tetraazaporphin attached thereto through a linker synthesized in the same manner as in Examples 19 to 25. The DNA fragments thus obtained were separated by electrophoresis in different lanes for the 4 reaction systems, respectively, and analyzed by means of a DNA sequencer equipped with a semiconductor laser. The reaction systems contained a nonionic surfactant as an addition if necessary.
Each of the phthalocyanines disclosed in International Application Number PCT/US89/03807 was attached to the oligonucleotide primer obtained in Example 18, according to the methods of grafted patents and the methods described in Examples 19 to 25 of this invention. Using each of the phthalocyanine-attached oligonucleotides thus obtained, the base sequence of DNA was analyzed in the same manner as in Example 26.

Human β-globin gene = experiment: Detection of β-globin gene in human DNA by PCR with labeled primers, fluorescence intensity of eluate; settings: Triton X-100, laser 680 nm
Experimental: Human β-globin gene was detected by a gene detection method using the PCR (Polymorase Chain Reaction) method.
Twenty cycles of gene amplification was carried out (the total volume of solution: 100 μl) according to the protocol of Perkin-Elmer-Cetus Corporation by using human placental DNA (1 μg), each of the labeled primers, i.e., illustrative compound No.-[…], synthesized in the manner described above (300 ng), HO-[…] (300 ng), a nonionic surfactant, and TaqDNA polymerase (Perkin-Elmer-Cetus Corporation).
Human placental DNA (1 μg), the same illustrative compound No.-[…] as in sample 1 (300 ng), HO-[…] (300 ng) and a nonionic surfactant were added to a reaction solution containing no TaqDNA polymerase which had been prepared according to the protocol of Perkin-Elmer-Cetus Corporation (the total volume of the solution: 100 μl). […]
After washing with buffer solution A (500 μl) and buffer solution A containing 5% ethanol (500 μl), elution was carried out using buffer solution A containing 10% ethanol (500 μl). The pH of the eluate was adjusted to about 8, and fluorescence intensity was measured by means of a photodiode array by using a semiconductor laser as an exciting light source. […]

For “sodium bis(tributylsiloxy)silicon-tetraphenylthionaphthalocyaninesulfonate [Illustrative compound No. 6]”, the Fluorescence quantum yield ([1]; excitation wavelength 700 nm) was 0.30.

For CN1CC[C@]23c4c5ccc(O)c4O[C@H]2[C@@H](O)C=C[C@H]3[C@H]1C5 [Morphine], the Relative affinity ([2]; relative to morphine, competitive reaction with tritium-labeled morphine) was 1.

In the case of “Tetraazaporphin-labeled primer 62: oligonucleotide primer 5'-GTTTCCCAGTCACGAC-3' labeled with illustrative compound No. 62 (labeled with tetraazaporphin compound No. 62, position not given here)”, the “Number of bases of DNA” value [3] is reported as 350, the Precision [3] is reported as 99.7% and the “Relative intensity Sample 1” value (Human β-globin gene; Sample 1 (with TaqDNA polymerase, 20 cycles)) is reported as 6. The “Relative intensity Sample 2” value (Human β-globin gene; Sample 2 (no TaqDNA polymerase)) was 134.

“sodium bis(tributylsiloxy)silicon-tetraphenylthionaphthalocyanine octacarboxylate [Illustrative compound No. 1]” showed a Fluorescence quantum yield ([1]; excitation wavelength 700 nm) of 0.33.

“sodium bis(tributylsiloxy)silicon-tetraphenylthioquinolocyanineoctacarboxylate [Illustrative compound No. 21]” showed a Fluorescence quantum yield ([1]; excitation wavelength 650 nm) of 0.52.

“3-(4-aminobutyl)morphine [Aminomorphine]” gave a Relative affinity [2] of 1.

Compound “sodium bis(tripropylsiloxy)silicon-tetraethylthionaphthalocyaninetetracarboxylate [Illustrative compound No. 16]” has a Fluorescence quantum yield ([1]; excitation wavelength 700 nm) of 0.32.

“sodium bis(trihydroxyneopentoxy)silicon-tetraphenylthionaphthalocyanineoctacarboxylate [Illustrative compound No. 11]” gave a Fluorescence quantum yield ([1]; excitation wavelength 700 nm) of 0.34.
